# According to US20240293558A1, “KRAS INHIBITOR CONJUGATES” (Erasca, Inc., priority 2021, published 2024):
# Columns and labels:
# WT KRAS = target: T1, WT KRAS (Homo sapiens, UniProt P01116); assay: Degradation of KRAS wild type (WT) in HT-29 cells, Western blot; type: cell-based; settings: HT-29 cell line, after 24 h treatment (FIG. 12)
# T1 construct: endogenous in cells; host or cells: HT-29 (ATCC HTB-38)
# Description: This Example illustrates that embodiments of the present application degrade KRAS WT
# HT-29 cells (ATCC HTB-38) expressing WT KRAS were grown in McCoy's 5a medium modified (ATCC cat #30-2007) supplemented with 10% fetal bovine serum, and Penicillin/Streptomycin. Cell were plated in 6-well tissue culture plates at a density of 1 million cells/well and allowed to attach for overnight. Diluted compounds were then added in a final concentration of 0.2% DMSO. After 24 hour treatment, the medium was removed, and the plate was washed three times with ice-cold PBS. 50ul of the RIPA cell lysis buffer (ThermoFisher 89901) supplemented with protease inhibitor (Roche 4693116001) and Phosphatase Cocktail A and B inhibitor (Bimake B15002; Bimake Houston TX) was added to each well, the adherent cells were scratched off, and transferred into pre-cold centrifuge tubes. […] The protein concentration of the supernatant was determined with bicinchoninic acid method (BCA) (ThermoFisher 23227). […]
# The levels of KRAS protein were determined by Western blotting. […] The signal intensities of bands were quantified by Li-Cor Odyssey CLX.
# The KRAS signals were normalized to the GAPDH signal for each lane and percent of DMSO values were calculated to determine the degradation of KRAS upon the compound treatment.
# KRAS G12D = KRAS G12D (Homo sapiens, UniProt P01116, G12D); assay: Degradation of KRas G12D in AsPC-1 cells, Western blot; type: cell-based; design: endogenous in cells; host or cells: AsPC-1 (ATCC CRL-1682)
# Sequence of KRAS G12D (P01116 1-188 isoform P01116-2 G12D): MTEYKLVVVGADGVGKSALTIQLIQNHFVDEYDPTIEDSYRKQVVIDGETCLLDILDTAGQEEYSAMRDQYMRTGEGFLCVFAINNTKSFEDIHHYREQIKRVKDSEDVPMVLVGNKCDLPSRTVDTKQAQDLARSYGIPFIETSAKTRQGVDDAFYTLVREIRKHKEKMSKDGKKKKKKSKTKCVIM
# Description: This Example illustrates that the compounds presented herein degrade KRAS G12D.
# AsPC-1 cells (ATCC CRL-1682) expressing G12D were grown in RPMI-1640 medium supplemented with 10% fetal bovine serum, and Penicillin/Streptomycin. Cell were plated in 6-well tissue culture plates at a density of 1 million cells/well and allowed to attach for overnight. Diluted compounds were then added in a final concentration of 0.2% DMSO. After 24 hour treatment, the medium was removed, and the plate was washed three times with ice-cold PBS. 50ul of the RIPA cell lysis buffer (ThermoFisher 89901) supplemented with protease inhibitor (Roche 4693116001) and Phosphatase Cocktail A and B inhibitor (Bimake B15002; Bimake Houston TX) was added to each well, the adherent cells were scratched off, and transferred into pre-cold centrifuge tubes. After vigorous vortex, the tubes were incubated on ice for 30 minutes, centrifuged 14,000 rpm for 10 min at 4° C., and the supernatant were transferred into fresh tubes kept on ice. The protein concentration of the supernatant was determined with bicinchoninic acid method (BCA) (ThermoFisher 23227). Samples were prepared to the final concentration of 30ug in 20ul using NuPAGE LDS Sample Buffer (Invitrogen NP0007), NuPAGE Sample Reducing Agent (Invitrogen NP0009), and RIPA cell lysis buffer, and boiled at 95° C. for 15 minutes in water bath.
# The levels of KRAS protein and phosphorylated ERK1/2 were determined by Western blotting. 20 μL of protein sample mixture was loaded into each well of 1.5 mm 4-12% Bis-Tris gel (Invitrogen NP0335), and run at 80V in stacking gel and 120 V in separating gel for about 2 h in MOPS running buffer (Invitrogen NP0001). The gel was transferred to the membrane (20V, 7 min) with Invitrogen iBlot2, and blocked with Li-Cor blocking buffer (LI-COR 927-60001; Li-Cor Biotechnology, Lincoln NE) for at least 1 h at room temperature. Primary antibodies diluted in the blocking buffer were added and incubated at 4° C. overnight. As the primary antibodies, KRAS (Proteintech 12063-1-AP), G12D Mutant Specific KRAS (Cell Signaling Technology 14429S), ERKI1/2 (Cell Signaling Technology 4695S), Phospho-ERKI1/2 (Cell Signaling Technology 4370S), and GAPDH (Millipore MAB374) were used. The membrane was washed 4 times with TBST (0.10% Tween20®; ThermoFisher 28360) for 5 minutes at room temperature, then incubated with Li-Cor anti-rabbit-800 (LI-COR 926-68070) and anti-mouse-680 (LI-COR-926-32211) diluted in Li-Cor blocking buffer with the ratio of 1:15,000 to visualize the primary antibodies for 1 hour at room temperature. Then membrane was washed 4 times with TBST (0.1% Tween20) 5 minutes. The signal intensities of bands were quantified by Li-Cor Odyssey CLX.
# The KRas and phosphor-ERK1/2 signals were normalized to the GAPDH signal for each lane and percent of DMSO values were calculated to determine the degradation of KRas and the inhibition of ERK1/2 phosphorylation upon the compound treatment.
# T1 sequence (P01116 1-188 isoform P01116-2): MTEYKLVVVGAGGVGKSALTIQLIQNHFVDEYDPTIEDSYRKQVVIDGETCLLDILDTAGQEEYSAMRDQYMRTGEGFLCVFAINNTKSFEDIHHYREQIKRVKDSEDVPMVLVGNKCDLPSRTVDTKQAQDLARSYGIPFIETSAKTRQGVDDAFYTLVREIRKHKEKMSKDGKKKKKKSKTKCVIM
Structure (SMILES),DC50 (WT KRAS),"Dmax (KRAS G12D; ASPC1, AsPc-1 cell line after 24 h treatment)","KRAS G12D degradation (Western blot), result in words (KRAS G12D; AsPC-1 cells, FIGS. 1-5)",DC50 (KRAS G12D; AsPc-1 cell line after 24 h treatment)
"C[C@H](NC(=O)[C@@H]1C[C@@H](O)CN1C(=O)[C@@H](NC(=O)CCOCCCN1CCC[C@H]1COc1nc(N2CC3CCC(C2)N3)c2cc(C(F)(F)F)c(-c3ccc(F)c4sc(N)c(C#N)c34)c(F)c2n1)C(C)(C)C)c1ccc(-c2c(F)cccc2F)cc1 (single isomer, unassigned) [Example 20]",426 nM,,,
"Cc1ncsc1-c1ccc([C@H](C)NC(=O)[C@@H]2C[C@@H](O)CN2C(=O)[C@@H](NC(=O)CCOCCCN2CCCC2COc2nc(N3CC4CCC(C3)N4)c3cc(Cl)c(-c4ccc(F)c5sc(N)c(C#N)c45)c(F)c3n2)C(C)(C)C)cc1 (stereo partly drawn) [Example 8, (2S,4R)-1-[(2S)-2-[3-[3-[2-[[7-(2-amino-3-cyano-7-fluoro-benzothiophen-4-yl)-6-chloro-4-(3,8-diazabicyclo[3.2.1]octan-3-yl)-8-fluoro-quinazolin-2-yl]oxymethyl]pyrrolidin-1-yl]propoxy]propanoylamino]-3,3-dimethyl-butanoyl]-4-hydroxy-N-[(1S)-1-[4-(4-methylthiazol-5-yl)phenyl]ethyl]pyrrolidine-2-carboxamide]",,95%,Favorable results,71 nM
